Experimental data published in ChEMBL document CHEMBL6178004, “Novel Azaindole Compounds as Phosphodiesterase 4B Inhibitors for Treating Immune-Inflammatory Diseases or Disorders” (ACS Med Chem Lett, 2025).

What was measured:
[1] = target: 3',5'-cyclic-AMP phosphodiesterase 4D (Homo sapiens, UniProt Q08499); assay: Inhibition of human recombinant PDE4D3 using [3H]cAMP as substrate incubated for 30 mins by scintillation proximity assay; format: single protein
[2] = target: 3',5'-cyclic-AMP phosphodiesterase 4B (Homo sapiens, UniProt Q07343); assay: Inhibition of human recombinant PDE4B1 using [3H]cAMP as substrate incubated for 30 mins by scintillation proximity assay
Chain of 3',5'-cyclic-AMP phosphodiesterase 4B (Q07343 whole entry): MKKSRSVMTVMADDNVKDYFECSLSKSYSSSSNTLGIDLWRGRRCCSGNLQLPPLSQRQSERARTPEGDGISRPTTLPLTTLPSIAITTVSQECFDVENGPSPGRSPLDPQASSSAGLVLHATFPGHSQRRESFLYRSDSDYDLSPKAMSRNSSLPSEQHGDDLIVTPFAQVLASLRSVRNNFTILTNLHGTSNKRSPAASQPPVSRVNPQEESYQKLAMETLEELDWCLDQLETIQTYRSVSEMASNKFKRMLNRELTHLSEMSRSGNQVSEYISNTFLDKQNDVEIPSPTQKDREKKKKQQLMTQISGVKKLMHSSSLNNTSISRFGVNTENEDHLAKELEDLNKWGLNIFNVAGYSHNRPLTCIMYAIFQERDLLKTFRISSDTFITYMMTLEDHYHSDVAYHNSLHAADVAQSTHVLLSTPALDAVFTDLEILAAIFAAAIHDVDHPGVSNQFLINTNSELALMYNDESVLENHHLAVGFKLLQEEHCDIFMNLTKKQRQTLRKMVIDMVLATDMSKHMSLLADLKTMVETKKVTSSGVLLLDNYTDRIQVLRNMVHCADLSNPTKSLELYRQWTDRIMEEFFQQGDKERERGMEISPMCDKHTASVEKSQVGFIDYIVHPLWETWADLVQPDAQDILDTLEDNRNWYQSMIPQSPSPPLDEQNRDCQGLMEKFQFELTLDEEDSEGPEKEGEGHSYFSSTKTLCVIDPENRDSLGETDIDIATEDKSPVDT

Chain of 3',5'-cyclic-AMP phosphodiesterase 4D (Q08499 whole entry): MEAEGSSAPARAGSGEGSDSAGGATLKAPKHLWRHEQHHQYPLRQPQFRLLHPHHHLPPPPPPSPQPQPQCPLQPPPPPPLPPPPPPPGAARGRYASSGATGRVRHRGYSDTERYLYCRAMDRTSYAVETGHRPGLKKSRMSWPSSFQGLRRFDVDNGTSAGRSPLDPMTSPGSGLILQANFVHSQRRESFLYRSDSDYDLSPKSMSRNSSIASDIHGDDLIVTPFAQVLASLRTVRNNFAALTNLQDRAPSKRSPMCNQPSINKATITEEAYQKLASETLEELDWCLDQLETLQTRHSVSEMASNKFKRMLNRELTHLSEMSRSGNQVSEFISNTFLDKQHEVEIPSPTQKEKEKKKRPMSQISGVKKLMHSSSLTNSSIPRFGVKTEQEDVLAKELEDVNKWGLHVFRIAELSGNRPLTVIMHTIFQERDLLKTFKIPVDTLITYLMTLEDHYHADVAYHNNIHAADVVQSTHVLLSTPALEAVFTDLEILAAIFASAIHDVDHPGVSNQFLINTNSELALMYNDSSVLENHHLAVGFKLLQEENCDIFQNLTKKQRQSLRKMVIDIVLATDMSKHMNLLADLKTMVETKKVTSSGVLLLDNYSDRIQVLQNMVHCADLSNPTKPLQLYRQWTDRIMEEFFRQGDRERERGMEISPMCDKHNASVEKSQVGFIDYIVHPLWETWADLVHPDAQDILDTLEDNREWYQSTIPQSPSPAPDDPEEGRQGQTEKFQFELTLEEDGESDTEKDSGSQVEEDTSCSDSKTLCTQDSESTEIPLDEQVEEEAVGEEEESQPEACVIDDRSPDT

## O=C1c2c(-c3ccc(Cl)c(F)c3)c3ncccc3n2CCN1CCO
[1]
  IC50: 10 nM
[2]
  IC50: < 10 nM

## COc1ccc(-c2c3n(c4cc(F)cnc24)C[C@H](CO)N(C2CC2)C3=O)cn1
[1]
  IC50: 10 nM
[2]
  IC50: < 10 nM

## O=C1c2c(-c3ccc(F)c(F)c3)c3ncccc3n2C[C@@H](CO)N1C1CC1
[1]
  IC50: 10 nM
[2]
  IC50: < 10 nM

## C[C@@H]1Cn2c(c(-c3ccc(Cl)c(F)c3)c3ncccc32)C(=O)N1CCO
[1]
  IC50: < 10 nM
[2]
  IC50: < 10 nM

## N#Cc1ccc(-c2c3n(c4cccnc24)C[C@@H](CO)N(C2CC2)C3=O)cc1F
[1]
  IC50: 10 nM
[2]
  IC50: < 10 nM

## O=C1c2c(-c3ccc(Cl)c(F)c3)c3ncccc3n2C[C@H](CO)N1C1CC1
[1]
  IC50: 10 nM
[2]
  IC50: < 10 nM
